From US11098288B2, “D-type amino acid dehydrogenase” (Kureha Corporation, priority 2017, dated 2021)
Each block holds one molecule with its values, some of them ahead of it.

Tests used:
[1] = tested on: Five-mutation enzyme (five-mutation D-type amino acid dehydrogenase, SEQ ID NO: 14); assay: D-amino acid synthesis activity (amination of 2-oxo acid), five-mutation enzyme; format: biochemical, Thermosyntropha lipolytica; conditions: 5 mM 2-oxoacid, 200 mM ammonium chloride, glycine buffer pH 9.5, 50° C.; for D-amino acid synthesis activity (specific activity), Five-mutation enzyme, NADH: NADH 0.1 mM; for D-amino acid synthesis activity (specific activity), Five-mutation enzyme, NADPH: NADPH 0.1 mM
Description: The PCR reaction solution was prepared so as to contain 0.3 μM of each of the following primers and 50 ng of the above-described template DNA.
After PCR, 2 μL of DpnI was added to the reaction solution and treated at 37° C. for 1 hour, and E. coli DH5α was transformed using the solution after treatment. Transformed cells were coated on an LB agar plate containing antibiotic ampicillin (final concentration 100 mg/L) and cultured at 37° C. for 16 hours. The generated colonies were harvested and cultured in LB liquid medium containing ampicillin overnight. The strains were collected from the culture solution by centrifugation, and five-mutation D-type amino acid dehydrogenase/pET100 was collected according to the manufacturer's protocol using AccuPrep Plasmid Mini Extraction Kit (BIONEER).
(§1) The activity of the enzyme was measured by determining a decrease in absorbance at wavelength of 340 nm of NADPH or NADH […] by the catalytic reaction of the enzyme and determining the enzymatic activity by the determined decrease in absorbance as an indicator. […] The absorbance was measured by an ultraviolet-visible spectrophotometer UV-1800 (available from SHIMADZU). […]

[2] = tested on: Six-mutation enzyme (Asp94Ser, Met154Leu, Val158Gly, Thr173Ile, Arg183Met, His229Asn; SEQ ID NO: 8); assay: D-amino acid synthesis activity (amination of 2-oxo acid), six-mutation enzyme; format: biochemical, Thermosyntropha lipolytica; conditions: 5 mM 2-oxoacid, 200 mM ammonium chloride, glycine buffer pH 9.5, 50° C.; for D-amino acid synthesis activity (specific activity), Six-mutation enzyme, NADH: NADH 0.1 mM; for D-amino acid synthesis activity (specific activity), Six-mutation enzyme, NADPH: NADPH 0.1 mM
Description: Using this as a template, the gene of the enzyme was amplified by PCR using “PrimeSTAR Max DNA Polymerase” available from Takara Bio Inc. PCR was performed according to the manufacturer's instructions. The PCR reaction solution was prepared so as to contain 0.3 μM of each of the following primers and 50 ng of the above-described template DNA.
According to the manufacturer's protocol, the purified amplification product was incorporated into a pET100 vector (I available from Invitrogen) of a plasmid for protein expression to construct a six-mutation D-type amino acid dehydrogenase/pET100. The expression vector was constructed so as to incorporate a six-mutation D-type amino acid dehydrogenase gene derived from T. lipolytica downstream of the T7 promoter and […], and upstream of the T7 terminator.
as §1

[3] = tested on: Wild type D-type amino acid dehydrogenase derived from T. lipolytica; assay: D-amino acid synthesis activity (amination of 2-oxo acid), wild type enzyme; format: biochemical, Thermosyntropha lipolytica; conditions: 5 mM 2-oxoacid, 200 mM ammonium chloride, glycine buffer pH 9.5, 50° C.; for D-amino acid synthesis activity (specific activity), Wild type, NADH: NADH 0.1 mM; for D-amino acid synthesis activity (specific activity), Wild type, NADPH: NADPH 0.1 mM
Description: as §1

[4] = molecular target: D-type amino acid dehydrogenase derived from T. lipolytica (Thermosyntropha lipolytica, UniProt A0A1M5M5H3); assay: Coenzyme dependence by activity-staining after disc gel electrophoresis; format: biochemical; conditions: 10 mM meso-diaminopimelic acid, 1.25 mM coenzyme, pH 8.0, 50° C., 30 minutes
Description: The coenzyme dependence of the enzyme was evaluated by an activity-staining method due to an enzymatic catalytic reaction. More specifically, an appropriate amount of enzyme solution was subjected to disc gel electrophoresis. […] A reaction formula is indicated below. In the following reaction formula, the D-type amino acid dehydrogenase is referred to as “meso-DAPDH”.

[5] = substrate: NC(=O)c1ccc[n+]([C@@H]2O[C@H](COP(=O)([O-])OP(=O)(O)OC[C@H]3O[C@@H](n4cnc5c(N)ncnc54)[C@H](O)[C@@H]3O)[C@@H](O)[C@H]2O)c1; assay: purified protein, by the assay type; format: biochemical, Thermosyntropha lipolytica; conditions: other: meso-diaminopimelic acid as substrate, 50° C., values for meso-diaminopimelic acid determined using NADP^+ as the coenzyme
Description: The absorbance was measured by an ultraviolet-visible spectrophotometer UV-1800 (available from SHIMADZU). The specific activity of the enzyme was calculated from the concentration of the enzyme used and enzyme dilution rate using the obtained absorbance change and the following equation.
A turnover number (kcat) as a reaction rate parameter, a Michaelis constant (Km) value, and catalytic efficiency (kcat/Km) were determined with Igor Pro ver. 3.14 (available from WaveMetrics) based on Michaelis-Menten equation after the initial velocities were plotted against different substrates and coenzyme concentrations.

[6] = substrate: N[C@H](CCC[C@H](N)C(=O)O)C(=O)O; assay: purified protein, by the assay type; conditions: other: meso-diaminopimelic acid as substrate, 50° C., values for meso-diaminopimelic acid determined using NADP^+ as the coenzyme

Molecule: O=C(O)C(=O)Cc1ccccc1 [2-oxo-3-phenylpropanoic acid]
D-amino acid synthesis activity (specific activity), Five-mutation enzyme, NADH [1]: No Activity | D-amino acid synthesis activity (specific activity), Five-mutation enzyme, NADPH [1]: 0.068 ± 0.0039 µmol/min/mg | D-amino acid synthesis activity (specific activity), Six-mutation enzyme, NADH [2]: No Activity | D-amino acid synthesis activity (specific activity), Six-mutation enzyme, NADPH [2]: 0.036 ± 0.0037 µmol/min/mg | D-amino acid synthesis activity (specific activity), Wild type, NADH [3]: 0.020 ± 0.0053 µmol/min/mg | D-amino acid synthesis activity (specific activity), Wild type, NADPH [3]: No Activity

Molecule: O=C(O)CCC(=O)C(=O)O [2-oxoglutaric acid/D-glutamic acid, 2-oxoglutaric acid]
D-amino acid synthesis activity (specific activity), Five-mutation enzyme, NADH [1]: No Activity | D-amino acid synthesis activity (specific activity), Five-mutation enzyme, NADPH [1]: 0.039 ± 0.0073 µmol/min/mg | D-amino acid synthesis activity (specific activity), Six-mutation enzyme, NADH [2]: No Activity | D-amino acid synthesis activity (specific activity), Six-mutation enzyme, NADPH [2]: 0.067 ± 0.0046 µmol/min/mg | D-amino acid synthesis activity (specific activity), Wild type, NADH [3]: No Activity | D-amino acid synthesis activity (specific activity), Wild type, NADPH [3]: 0.27 ± 0.010 µmol/min/mg

Molecule: CC(C)CC(=O)C(=O)O [2-oxo-4-methylpentanoic acid/D-leucine, 2-oxo-4-methylpentanoic acid]
D-amino acid synthesis activity (specific activity), Five-mutation enzyme, NADH [1]: 0.11 ± 0.0027 µmol/min/mg | D-amino acid synthesis activity (specific activity), Five-mutation enzyme, NADPH [1]: 0.20 ± 0.0071 µmol/min/mg | D-amino acid synthesis activity (specific activity), Six-mutation enzyme, NADH [2]: No Activity | D-amino acid synthesis activity (specific activity), Six-mutation enzyme, NADPH [2]: 0.11 ± 0.0013 µmol/min/mg | D-amino acid synthesis activity (specific activity), Wild type, NADH [3]: 0.27 ± 0.0064 µmol/min/mg | D-amino acid synthesis activity (specific activity), Wild type, NADPH [3]: 0.061 ± 0.00082 µmol/min/mg

Molecule: CC(=O)C(=O)O [2-oxopropanoic acid/D-alanine, 2-oxopropanoic acid]
D-amino acid synthesis activity (specific activity), Five-mutation enzyme, NADH [1]: 0.0077 ± 0.0015 µmol/min/mg | D-amino acid synthesis activity (specific activity), Five-mutation enzyme, NADPH [1]: 0.071 ± 0.00074 µmol/min/mg | D-amino acid synthesis activity (specific activity), Six-mutation enzyme, NADH [2]: 0.0053 ± 0.0036 µmol/min/mg | D-amino acid synthesis activity (specific activity), Six-mutation enzyme, NADPH [2]: 0.044 ± 0.0034 µmol/min/mg | D-amino acid synthesis activity (specific activity), Wild type, NADH [3]: 0.49 ± 0.016 µmol/min/mg | D-amino acid synthesis activity (specific activity), Wild type, NADPH [3]: 5.3 ± 0.038 µmol/min/mg

coenzyme utilization (activity-staining) [4]: utilized
Molecule: NC(=O)c1ccc[n+]([C@@H]2O[C@H](COP(=O)([O-])OP(=O)(O)OC[C@H]3O[C@@H](n4cnc5c(N)ncnc54)[C@H](O)[C@@H]3O)[C@@H](O)[C@H]2O)c1 [NAD^+]

Molecule: CCCCCCC(=O)C(=O)O [2-oxooctanoic acid]
D-amino acid synthesis activity (specific activity), Five-mutation enzyme, NADH [1]: 0.017 ± 0.0027 µmol/min/mg | D-amino acid synthesis activity (specific activity), Five-mutation enzyme, NADPH [1]: 0.47 ± 0.012 µmol/min/mg | D-amino acid synthesis activity (specific activity), Six-mutation enzyme, NADH [2]: 0.0098 ± 0.0047 µmol/min/mg | D-amino acid synthesis activity (specific activity), Six-mutation enzyme, NADPH [2]: 0.35 ± 0.0093 µmol/min/mg | D-amino acid synthesis activity (specific activity), Wild type, NADH [3]: No Activity | D-amino acid synthesis activity (specific activity), Wild type, NADPH [3]: 0.101 ± 0.010 µmol/min/mg

Molecule: CC(C)C(=O)C(=O)O [2-oxo-3-methylbutanoic acid/D-valine, 2-oxo-3-methylbutanoic acid]
D-amino acid synthesis activity (specific activity), Five-mutation enzyme, NADH [1]: 0.18 ± 0.00078 µmol/min/mg | D-amino acid synthesis activity (specific activity), Five-mutation enzyme, NADPH [1]: 0.11 ± 0.0034 µmol/min/mg | D-amino acid synthesis activity (specific activity), Six-mutation enzyme, NADH [2]: 0.18 ± 0.00089 µmol/min/mg | D-amino acid synthesis activity (specific activity), Six-mutation enzyme, NADPH [2]: 0.058 ± 0.0027 µmol/min/mg | D-amino acid synthesis activity (specific activity), Wild type, NADH [3]: 0.43 ± 0.0026 µmol/min/mg | D-amino acid synthesis activity (specific activity), Wild type, NADPH [3]: 0.33 ± 0.0094 µmol/min/mg

Molecule: CSCCC(=O)C(=O)O [2-oxo-4-(methylthio) butanoic acid]
D-amino acid synthesis activity (specific activity), Five-mutation enzyme, NADH [1]: No Activity | D-amino acid synthesis activity (specific activity), Five-mutation enzyme, NADPH [1]: 0.18 ± 0.0022 µmol/min/mg | D-amino acid synthesis activity (specific activity), Six-mutation enzyme, NADH [2]: No Activity | D-amino acid synthesis activity (specific activity), Six-mutation enzyme, NADPH [2]: 0.089 ± 0.0038 µmol/min/mg | D-amino acid synthesis activity (specific activity), Wild type, NADH [3]: 0.0033 ± 0.0016 µmol/min/mg | D-amino acid synthesis activity (specific activity), Wild type, NADPH [3]: 0.059 ± 0.0065 µmol/min/mg

Molecule: CCC(=O)C(=O)O [2-oxobutanoic acid/D-2-aminobutyric acid, 2-oxobutanoic acid]
D-amino acid synthesis activity (specific activity), Five-mutation enzyme, NADH [1]: 0.044 ± 0.0049 µmol/min/mg | D-amino acid synthesis activity (specific activity), Five-mutation enzyme, NADPH [1]: 0.13 ± 0.0020 µmol/min/mg | D-amino acid synthesis activity (specific activity), Six-mutation enzyme, NADH [2]: 0.032 ± 0.0023 µmol/min/mg | D-amino acid synthesis activity (specific activity), Six-mutation enzyme, NADPH [2]: 0.077 ± 0.0041 µmol/min/mg | D-amino acid synthesis activity (specific activity), Wild type, NADH [3]: 0.13 ± 0.0041 µmol/min/mg | D-amino acid synthesis activity (specific activity), Wild type, NADPH [3]: 2.3 ± 0.030 µmol/min/mg

Molecule: O=C(O)CC(=O)C(=O)O [2-oxobutanedioic acid/D-aspartic acid, 2-oxobutanedioic acid]
D-amino acid synthesis activity (specific activity), Five-mutation enzyme, NADH [1]: 0.14 ± 0.014 µmol/min/mg | D-amino acid synthesis activity (specific activity), Five-mutation enzyme, NADPH [1]: 0.60 ± 0.035 µmol/min/mg | D-amino acid synthesis activity (specific activity), Six-mutation enzyme, NADH [2]: 0.12 ± 0.010 µmol/min/mg | D-amino acid synthesis activity (specific activity), Six-mutation enzyme, NADPH [2]: 0.32 ± 0.0082 µmol/min/mg | D-amino acid synthesis activity (specific activity), Wild type, NADH [3]: 0.43 ± 0.015 µmol/min/mg | D-amino acid synthesis activity (specific activity), Wild type, NADPH [3]: 5.7 ± 0.60 µmol/min/mg

Molecule: NADP^+
coenzyme utilization (activity-staining) [4]: utilized

B1: D-type amino acid dehydrogenase derived from T. lipolytica (Thermosyntropha lipolytica DSM 11003) (protein)
chain: MGEKIRVAIVGYGNIGRYALDAIKAAPDMELAGVVRRSSSLGDKPAELADVPVVGSIKELTGVKVALLCTPTRSVPEYAREILALGINTVDSYDIHGQLADLRLELDKVAKEHNAVAVISAGWDPGTDSMVRCMFEFMAPKGITYTNFGPGMSMGHSVAVKAVKGVKNALSMTIPLGTGVHRRMVYVELEPGADFAQVEKAVKTDPYFVKDETHVIQVEDVDALIDMGHGVLMERKGVSGGTHNQLLSFSMRINNPALTAQIMVASARASVKQKPGAYTMIQIPIIDYMYGDPDEIIRQLV
Km [5]: 14.8 mM | kcat [5]: 77.5 s⁻¹ | kcat/Km [5]: 5220 M⁻¹ s⁻¹ | Km [6]: 5.68 mM | kcat [6]: 73.7 s⁻¹ | kcat/Km [6]: 13000 M⁻¹ s⁻¹
